Measurements as given in article PMC10223997, “Screening and Elucidation of Chemical Structures of Novel Mammalian α-Glucosidase Inhibitors Targeting Anti-Diabetes Drug from Herbals Used by E De Ethnic Tribe in Vietnam” (Pharmaceuticals, 2023).
Values after ≈ are worked out from the molar mass of the structure shown.

Molecular target: Rat α-Glucosidase
Assay: Alpha-glucosidase inhibition assay (rat intestinal acetone powder, pNPG substrate)
Assay type: biochemical
Details: for IC50 / maximum inhibition: purified compounds and acarbose, Figure 2
Description: • - Enzyme solution preparation: Enzyme solution was then sonicated 24 times, each for 12 s at 4 °C, and then centrifuged for 20 min at 10,000× g, 4 °C. The residue part was re-suspended twice with 15 mL of the same buffer (0.1 mol/L NPB, pH 7), as described above. All supernatants were mixed together and dialyzed for a half day at 4–6 °C to obtain the enzyme solution, which was then used for further analyses. • - Reaction and estimation of inhibitory activity: The enzyme inhibition assay was done according to Kwon et al. 2006 [40] with slight modification. The enzyme solution (50 µL) and the sample solution (50 µL) were mixed in 150 μL of 0.1 mol/L NPB, pH 7. This mixture was pre-incubated at 37 °C for 15 min. The reaction was started by adding 50 μL of the substrate pNPG (10 mmol/L) into this mixture solution, and this duration was kept at 37 °C for 30 min, then 325 μL of 1 mol/L Na2CO3 solution were added to terminate the reaction. This absorption of the final solution was measured at 410 nm (namely, E) using a UV spectrometer (UV-2550, Shimadzu, Japan) to estimate the enzymatic activity, and the control experiment was also conducted similarly, but instead of the inhibitor solution, 50 μL 0.1 mol/L potassium phosphate buffer (pH 7) and the absorbance was measured at 410 nm (namely, C). The inhibitory effect (%) was calculated using the equation below:
α-Glucosidase inhibition (%) = (C − E)/C × 100, where E denoted the optical density of the solution reaction in the presence of both α-glucosidase and the sample, and C is the optical density of the reaction blank.

IC50	maximum inhibition	Inhibition of Rat α-Glucosidase % (MeOH extracts of medicinal plants and acarbose, Table 1)	Inhibition of Rat α-Glucosidase IC50 (MeOH extracts of medicinal plants and acarbose, listed as Acarbose)	Inhibition of Rat α-Glucosidase IC50 (MeOH extracts of medicinal plants and acarbose, listed as acarbose)	Structure (SMILES)
191 µg/mL (≈ 0.426 mM)	93%	–	–	–	C[C@@H]1O[C@@H](Oc2cc3c(=O)oc4c(O)c(O)cc5c(=O)oc(c2O)c3c45)[C@H](O)[C@H](O)[C@H]1O [EWC, eschweilenol C]
–	84–85%	–	–	–	Oc1cc(O)c2c(c1)O[C@H](c1ccc(O)c(O)c1)[C@H](O)C2 [ECC, (−)-epicatechin]
–	84–85%	92%	310 µg/mL	309 µg/mL	C[C@H]1O[C@H](O[C@H]2[C@H](O)[C@@H](O)[C@@H](O[C@H]3[C@H](O)[C@@H](O)C(O)O[C@@H]3CO)O[C@@H]2CO)[C@H](O)[C@@H](O)[C@@H]1N[C@H]1C=C(CO)[C@@H](O)[C@H](O)[C@H]1O (stereo partly drawn) [AC, acarbose, reference compound]
973 µg/mL (≈ 5.72 mM)	80%	–	–	–	O=C(O)c1cc(O)c(O)c(O)c1 [GA, gallic acid]
